One data set in a line: in vivo. The following applies: plasma.
The nature of a further data set: plasma pharmacokinetics. The following applies: in the dose range 5 mg-500 mg.

As usually defined, the half-life is the time needed for the level to fall by half in the phase considered. A low value points to fast loss.

Source text for in vivo: (§1) “PK” refers to the pharmacokinetic profile. Cmax is defined as the highest plasma drug concentration estimated during an experiment (ng/ml). Tmax is defined as the time when Cmax is estimated (min). AUC0-∞ is the total area under the plasma drug concentration-time curve, from drug administration until the drug is eliminated (ng·hr/ml). The area under the curve is governed by clearance. Clearance is defined as the volume of blood or plasma that is totally cleared of its content of drug per unit time (ml/min).
Source text for plasma pharmacokinetics: as §1

`N[C@H]1C[C@@H](C(=O)O)CC1=C(F)F` returned a half-life in the data set “in vivo” of 4 to 6 h. In addition, the AUCs dose proportionality entry in the data set “plasma pharmacokinetics” was “greater than proportional increase”.

Source of the values: patent US20190298674A1 (Ovid Therapeutics, Inc., priority 2018, published 2019).
